Test results from patent publication US20250332173A1, “COMPOUNDS AND METHODS FOR MODULATING NUCLEIC ACID SPLICING” (REMIX THERAPEUTICS INC., priority 2021, published 2025).
Where two headings read alike, the source gives them in different places.

Legend:
[1] = tested on: HTT mRNA; assay: RT-qPCR splicing assay, HTT canonical junction (CJ) and alternative junction (AJ) mRNA; assay type: cell-based, human; conditions: Homo sapiens; for AC50: increase in HTT alternative junction (AJ) mRNA, read-out: HTT AJ AC50
In short: (§1)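 Read-out is one-step RT-qPCR on cell lysates detecting the exon-exon junction of each isoform, normalized to a housekeeping gene (PPIA in A673, GAPDH or GUSB in K562).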

[2] = tested on: MYB mRNA; assay: RT-qPCR splicing assay, MYB canonical junction (CJ) and alternative junction (AJ) mRNA; assay type: cell-based, human; conditions: Homo sapiens; for AC50: increase in MYB alternative junction (AJ) mRNA, read-out: MYB AJ AC50
In short: as §1

[3] = tested on: SMN2 mRNA; assay: RT-qPCR splicing assay, SMN2 canonical junction (CJ) mRNA; assay type: cell-based, human; conditions: Homo sapiens; canonical junction qPCR panel, Table 5; read-out: SMN2 (decrease in CJ mRNA levels, IC50)
In short: (§2)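 A673 or K562 cells were treated for 24 h at 37 °C with compound in 11-point 3-fold dilution (top 10 uM final, DMSO ≤0.25%). Lysates then went to one-step RT-qPCR measuring canonical-junction mRNA, normalized to GAPDH, GUSB or PPIA.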

[4] = tested on: Target C; assay: RT-qPCR splicing assay panel, Target C canonical junction (CJ) mRNA; assay type: cell-based, human; conditions: Homo sapiens; canonical junction qPCR panel, Table 5; read-out: Target C (decrease in CJ mRNA levels, IC50)
In short: as §2

[5] = tested on: K562 (human chronic myelogenous leukemia) cells; assay: Cell Titer Glo 2.0 cell viability assay; assay type: cell-based; conditions: Homo sapiens, K562, 72 h, K562 cells, 72 hours, Cell Titer Glo 2.0; read-out: K562 GI50
[6] = decrease in HTT canonical junction (CJ) mRNA, RT-qPCR, read-out: HTT CJ IC50
[7] = canonical junction qPCR panel, Table 5, read-out: HTT (decrease in CJ mRNA levels, IC50)
[8] = canonical junction qPCR panel, Table 5, read-out: MYB (decrease in CJ mRNA levels, IC50)
[9] = decrease in MYB canonical junction (CJ) mRNA, RT-qPCR, read-out: MYB CJ IC50

Cc1c(O)c(-c2ncc3c(=O)n(C45CCC(N(C)C)(CC4)C5)ccc3n2)cc2cn(C)nc12 [Compound 1488]
IC50 [1, 6]: 1000 to 10000 nM | AC50 ([1]; RT-qPCR): 100 to 1000 nM | IC50 [1, 7]: 100 to 1000 nM | IC50 [2, 8]: 100 to 1000 nM | IC50 [2, 9]: 100 to 1000 nM | AC50 ([2]; RT-qPCR): 100 to 1000 nM | IC50 [3]: < 100 nM | IC50 [4]: 1000 to 10000 nM | GI50 [5]: 100 to 1000 nM

Cn1cc2cc(-c3ncc4c(=O)n(C56CCC(N)(CC5)C6)ccc4n3)cc(F)c2n1 [Compound 1489, 6-(4-aminonorbornane-1-yl)-2-(7-fluoro-2-methyl-indazol-5-yl)pyrido[4,3-d]pyrimidin-5-one]
IC50 [1, 6]: 1000 to 10000 nM | AC50 ([1]; RT-qPCR): 1000 to 10000 nM | IC50 [1, 7]: 1000 to 10000 nM | IC50 [2, 8]: 100 to 1000 nM | IC50 [2, 9]: 100 to 1000 nM | AC50 ([2]; RT-qPCR): 100 to 1000 nM | IC50 [3]: < 100 nM | IC50 [4]: 1000 to 10000 nM | GI50 [5]: 100 to 1000 nM

Cc1cn2cc(-c3ncc4c(=O)n([C@H]5CCN[C@H](C)C5)ccc4n3)cc(F)c2n1 [Compound 1490, 2-(8-fluoro-2-methyl-imidazo[1,2-a]pyridin-6-yl)-6-[(2R,4S)-2-methyl-4-piperidyl]pyrido[4,3-d]pyrimidin-5-one]
IC50 [1, 6]: 100 to 1000 nM | AC50 ([1]; RT-qPCR): < 100 nM | IC50 [1, 7]: < 100 nM | IC50 [2, 8]: < 100 nM | IC50 [2, 9]: < 100 nM | AC50 ([2]; RT-qPCR): < 100 nM | IC50 [3]: < 100 nM | IC50 [4]: 100 to 1000 nM | GI50 [5]: 100 to 1000 nM

Cc1cn2cc(-c3nc(C)c4c(=O)n(C5CCNCC5)ccc4n3)cc(F)c2n1 [Compound 1491, 2-(8-fluoro-2-methyl-imidazo[1,2-a]pyridin-6-yl)-4-methyl-6-(4-piperidyl)pyrido[4,3-d]pyrimidin-5-one]
IC50 [1, 6]: 100 to 1000 nM | AC50 ([1]; RT-qPCR): 100 to 1000 nM | IC50 [1, 7]: 100 to 1000 nM | IC50 [2, 8]: 100 to 1000 nM | IC50 [2, 9]: 100 to 1000 nM | AC50 ([2]; RT-qPCR): 100 to 1000 nM | IC50 [3]: < 100 nM | IC50 [4]: 100 to 1000 nM | GI50 [5]: 100 to 1000 nM

Cc1cn2cc(-c3ccc4c(=O)n(C56CCC(N)(CC5)C6)ccc4n3)cc(F)c2n1 [Compound 1492]
IC50 [1, 6]: 1000 to 10000 nM | AC50 ([1]; RT-qPCR): 1000 to 10000 nM | IC50 [1, 7]: 1000 to 10000 nM | IC50 [2, 8]: 100 to 1000 nM | IC50 [2, 9]: 100 to 1000 nM | AC50 ([2]; RT-qPCR): 100 to 1000 nM | IC50 [3]: < 100 nM | IC50 [4]: 1000 to 10000 nM | GI50 [5]: 100 to 1000 nM

C[C@H]1C[C@@H](n2ccc3nc(-c4cc5cn(C)nc5cc4O)ncc3c2=O)CCN1 [Compound 1493, 2-(6-hydroxy-2-methyl-indazol-5-yl)-6-[(2S,4S)-2-methyl-4-piperidyl]pyrido[4,3-d]pyrimidin-5-one]
IC50 [1, 6]: 1000 to 10000 nM | AC50 ([1]; RT-qPCR): 1000 to 10000 nM | IC50 [1, 7]: 1000 to 10000 nM | IC50 [2, 8]: 100 to 1000 nM | IC50 [2, 9]: 100 to 1000 nM | AC50 ([2]; RT-qPCR): 100 to 1000 nM | IC50 [3]: < 100 nM | IC50 [4]: 1000 to 10000 nM | GI50 [5]: 100 to 1000 nM

Cc1cn2cc(-c3ccc4c(=O)n([C@H]5CCN[C@@H](C)C5)ccc4n3)cc(F)c2n1 [Compound 1494]
IC50 [1, 6]: 1000 to 10000 nM | AC50 ([1]; RT-qPCR): 1000 to 10000 nM | IC50 [1, 7]: 1000 to 10000 nM | IC50 [2, 8]: 100 to 1000 nM | IC50 [2, 9]: 100 to 1000 nM | AC50 ([2]; RT-qPCR): 100 to 1000 nM | IC50 [3]: < 100 nM | IC50 [4]: 1000 to 10000 nM | GI50 [5]: 100 to 1000 nM

Cc1cn2nc(-c3ccc4c(=O)n([C@H]5CCN[C@@H](C)C5)ccc4n3)cc(C)c2n1 [Compound 1495]
IC50 [1, 6]: 100 to 1000 nM | AC50 ([1]; RT-qPCR): < 100 nM | IC50 [1, 7]: < 100 nM | IC50 [2, 8]: < 100 nM | IC50 [2, 9]: < 100 nM | AC50 ([2]; RT-qPCR): < 100 nM | IC50 [3]: < 100 nM | IC50 [4]: 100 to 1000 nM | GI50 [5]: 100 to 1000 nM

Cc1cn2cc(-c3ncc4c(=O)n([C@@H]5CCNC(C)(C)C5)ccc4n3)cc(F)c2n1 [Compound 1496, 6-[(4R)-2,2-dimethyl-4-piperidyl]-2-(8-fluoro-2-methyl-imidazo[1,2-a]pyridin-6-yl)pyrido[4,3-d]pyrimidin-5-one]
IC50 [1, 6]: 1000 to 10000 nM | AC50 ([1]; RT-qPCR): 100 to 1000 nM | IC50 [1, 7]: 100 to 1000 nM | IC50 [2, 8]: 100 to 1000 nM | IC50 [2, 9]: 100 to 1000 nM | AC50 ([2]; RT-qPCR): 100 to 1000 nM | IC50 [3]: < 100 nM | IC50 [4]: 1000 to 10000 nM | GI50 [5]: 100 to 1000 nM

Cc1cn2cc(-c3ncc4c(=O)n([C@H]5CCNC(C)(C)C5)ccc4n3)cc(F)c2n1 [Compound 1497, 6-[(4S)-2,2-dimethyl-4-piperidyl]-2-(8-fluoro-2-methyl-imidazo[1,2-a]pyridin-6-yl)pyrido[4,3-d]pyrimidin-5-one]
IC50 [1, 6]: 1000 to 10000 nM | AC50 ([1]; RT-qPCR): 100 to 1000 nM | IC50 [1, 7]: 100 to 1000 nM | IC50 [2, 8]: 100 to 1000 nM | IC50 [2, 9]: 100 to 1000 nM | AC50 ([2]; RT-qPCR): 100 to 1000 nM | IC50 [3]: < 100 nM | IC50 [4]: 1000 to 10000 nM | GI50 [5]: 100 to 1000 nM

Cc1cn2cc(-c3ncc4c(=O)n([C@@H]5CCN[C@@H](C)C5)ccc4n3)cc(F)c2n1 [Compound 1498, 2-(8-fluoro-2-methyl-imidazo[1,2-a]pyridin-6-yl)-6-[(2S,4R)-2-methyl-4-piperidyl]pyrido[4,3-d]pyrimidin-5-one]
IC50 [1, 6]: 1000 to 10000 nM | AC50 ([1]; RT-qPCR): 1000 to 10000 nM | IC50 [1, 7]: 1000 to 10000 nM | IC50 [2, 8]: 100 to 1000 nM | IC50 [2, 9]: < 100 nM | AC50 ([2]; RT-qPCR): 100 to 1000 nM | IC50 [3]: < 100 nM | IC50 [4]: 1000 to 10000 nM | GI50 [5]: 100 to 1000 nM

Cc1cn2nc(-c3ccc4c(=O)n(C5CCNCC5)ccc4n3)cc(C)c2n1 [Compound 1499, 2-(2,8-dimethylimidazo[1,2-b]pyridazin-6-yl)-6-(4-piperidyl)-1,6-naphthyridin-5-one]
IC50 [1, 6]: < 100 nM | AC50 ([1]; RT-qPCR): < 100 nM | IC50 [1, 7]: < 100 nM | IC50 [2, 8]: < 100 nM | IC50 [2, 9]: < 100 nM | AC50 ([2]; RT-qPCR): < 100 nM | IC50 [3]: < 100 nM | IC50 [4]: 100 to 1000 nM | GI50 [5]: 100 to 1000 nM

Cc1cn2cc(-c3ncc4c(=O)n([C@H]5CCN[C@@H](C)C5)ccc4n3)cc(F)c2n1 [Compound 1500, 2-(8-fluoro-2-methyl-imidazo[1,2-a]pyridin-6-yl)-6-[(2S,4S)-2-methyl-4-piperidyl]pyrido[4,3-d]pyrimidin-5-one]
IC50 [1, 6]: 100 to 1000 nM | AC50 ([1]; RT-qPCR): 100 to 1000 nM | IC50 [1, 7]: 100 to 1000 nM | IC50 [2, 8]: < 100 nM | IC50 [2, 9]: < 100 nM | AC50 ([2]; RT-qPCR): < 100 nM | IC50 [3]: < 100 nM | IC50 [4]: 100 to 1000 nM | GI50 [5]: 100 to 1000 nM

Cc1cn2cc(-c3nc(C)c4c(=O)n([C@H]5CCN[C@@H](C)C5)ccc4n3)cc(F)c2n1 [Compound 1501, 2-(8-fluoro-2-methyl-imidazo[1,2-a]pyridin-6-yl)-4-methyl-6-[(2S,4S)-2-methyl-4-piperidyl]pyrido[4,3-d]pyrimidin-5-one]
IC50 [1, 6]: 100 to 1000 nM | AC50 ([1]; RT-qPCR): 100 to 1000 nM | IC50 [1, 7]: 100 to 1000 nM | IC50 [2, 8]: < 100 nM | IC50 [2, 9]: < 100 nM | AC50 ([2]; RT-qPCR): < 100 nM | IC50 [3]: < 100 nM | IC50 [4]: 100 to 1000 nM | GI50 [5]: 100 to 1000 nM

Cc1cn2cc(-c3ccc4c(=O)n(C5C[C@H](C)N[C@@H](C)C5)ccc4n3)cc(F)c2n1 (stereo partly drawn) [Compound 1502, 6-[(2S,6S)-2,6-dimethyl-4-piperidyl]-2-(8-fluoro-2-methyl-imidazo[1,2-a]pyridin-6-yl)-1,6-naphthyridin-5-one]
IC50 [1, 6]: 1000 to 10000 nM | AC50 ([1]; RT-qPCR): 1000 to 10000 nM | IC50 [1, 7]: 1000 to 10000 nM | IC50 [2, 8]: 100 to 1000 nM | IC50 [2, 9]: 100 to 1000 nM | AC50 ([2]; RT-qPCR): 100 to 1000 nM | IC50 [3]: < 100 nM | IC50 [4]: 1000 to 10000 nM | GI50 [5]: 100 to 1000 nM
